Experimental data taken from the supplement of paper PMC10307832.

Legend:
Assay in all cases: relative viability (nuclei count vs DMSO), 5 days (fraction); higher = more cells survive
[1] = test system: CAL-12T
In short: (§1)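 Dosing by pin tool came one day after lung cancer cell lines were seeded in 1536-well plates, using either one drug or a fixed anchor-drug dose plus five library-drug doses (not always all listed) in √10 steps. After 5 days, nuclei were counted on 4× images. Relative viability is treated-well nuclei count divided by vehicle-well nuclei count, and values are medians of duplicate plates.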

[2] = test system: BEN
In short: as §1

[3] = test system: 201T
In short: as §1

[4] = test system: NCI-H3122
In short: as §1

[5] = test system: HCC-44
In short: as §1

[6] = test system: LCLC-103H
In short: as §1

[7] = test system: LXF-289
In short: as §1

[8] = test system: HOP-62
In short: as §1

[9] = test system: NCI-H1437
In short: as §1

[10] = test system: NCI-H727
In short: as §1

[11] = test system: NCI-H2087
In short: as §1

[12] = test system: RERF-LC-KJ
In short: as §1

[13] = test system: NCI-H2228
In short: as §1

[14] = test system: NCI-H2405
In short: as §1

[15] = test system: NCI-H1793
In short: as §1

[16] = test system: HCC-827
In short: as §1

[17] = test system: NCI-H1395
In short: as §1

[18] = test system: NCI-H1944
In short: as §1

[19] = test system: SK-LU-1
In short: as §1

[20] = test system: LCLC-97TM1
In short: as §1

[21] = test system: NCI-H322M
In short: as §1

[22] = test system: NCI-H647
In short: as §1

CC1(C)CCC(c2ccc(Cl)cc2)=C(CN2CCN(c3ccc(C(=O)NS(=O)(=O)c4ccc(N[C@H](CCN5CCOCC5)CSc5ccccc5)c(S(=O)(=O)C(F)(F)F)c4)cc3)CC2)C1 [Navitoclax] + C[C@]1(O)C[C@@H](c2nc(-c3ccc4ccc(-c5ccccc5)nc4c3)c3c(N)nccn32)C1 [Linsitinib] (partner 1 µM)
relative viability ([1]; first compound 0.005 µM): 0.849
relative viability ([1]; first compound 0.01581 µM): 0.937
relative viability ([1]; first compound 0.05 µM): 0.775
relative viability ([1]; first compound 0.1581 µM): 0.736
relative viability ([1]; first compound 0.5 µM): 0.726
relative viability ([2]; first compound 0.005 µM): 0.841
relative viability ([2]; first compound 0.01581 µM): 0.921
relative viability ([2]; first compound 0.05 µM): 0.958
relative viability ([2]; first compound 0.1581 µM): 0.911
relative viability ([2]; first compound 0.5 µM): 0.634
relative viability ([3]; first compound 0.005 µM): 1.11
relative viability ([3]; first compound 0.01581 µM): 1.09
relative viability ([3]; first compound 0.05 µM): 0.95
relative viability ([3]; first compound 0.1581 µM): 1.05
relative viability ([3]; first compound 0.5 µM): 1.01
relative viability ([4]; first compound 0.005 µM): 1.11
relative viability ([4]; first compound 0.01581 µM): 1.08
relative viability ([4]; first compound 0.05 µM): 1.13
relative viability ([4]; first compound 0.1581 µM): 0.985
relative viability ([4]; first compound 0.5 µM): 1.02
relative viability ([5]; first compound 0.005 µM): 0.592
relative viability ([5]; first compound 0.01581 µM): 0.625
relative viability ([5]; first compound 0.05 µM): 0.594
relative viability ([5]; first compound 0.1581 µM): 0.649
relative viability ([5]; first compound 0.5 µM): 0.646
relative viability ([6]; first compound 0.005 µM): 1.07
relative viability ([6]; first compound 0.01581 µM): 1.19
relative viability ([6]; first compound 0.05 µM): 1.09
relative viability ([6]; first compound 0.1581 µM): 1.03
relative viability ([6]; first compound 0.5 µM): 1.02
relative viability ([7]; first compound 0.005 µM): 0.971
relative viability ([7]; first compound 0.01581 µM): 0.974
relative viability ([7]; first compound 0.05 µM): 0.84
relative viability ([7]; first compound 0.1581 µM): 0.978
relative viability ([7]; first compound 0.5 µM): 0.966
relative viability ([8]; first compound 0.005 µM): 0.976
relative viability ([8]; first compound 0.01581 µM): 0.871
relative viability ([8]; first compound 0.05 µM): 0.955
relative viability ([8]; first compound 0.1581 µM): 0.767
relative viability ([8]; first compound 0.5 µM): 0.923
relative viability ([9]; first compound 0.005 µM): 0.952
relative viability ([9]; first compound 0.01581 µM): 1.08
relative viability ([9]; first compound 0.05 µM): 1.02
relative viability ([9]; first compound 0.1581 µM): 1.09
relative viability ([9]; first compound 0.5 µM): 0.95
relative viability ([10]; first compound 0.005 µM): 0.299
relative viability ([10]; first compound 0.01581 µM): 0.358
relative viability ([10]; first compound 0.1581 µM): 0.284
relative viability ([10]; first compound 0.5 µM): 0.162
relative viability ([11]; first compound 0.005 µM): 0.919
relative viability ([11]; first compound 0.01581 µM): 0.898
relative viability ([11]; first compound 0.05 µM): 0.956
relative viability ([11]; first compound 0.1581 µM): 1.14
relative viability ([11]; first compound 0.5 µM): 0.871
relative viability ([12]; first compound 0.005 µM): 0.905
relative viability ([12]; first compound 0.01581 µM): 0.859
relative viability ([12]; first compound 0.05 µM): 0.927
relative viability ([12]; first compound 0.1581 µM): 0.915
relative viability ([12]; first compound 0.5 µM): 0.904
relative viability ([13]; first compound 0.005 µM): 0.877
relative viability ([13]; first compound 0.01581 µM): 0.81
relative viability ([13]; first compound 0.05 µM): 0.623
relative viability ([13]; first compound 0.1581 µM): 0.626
relative viability ([13]; first compound 0.5 µM): 0.639
relative viability ([14]; first compound 0.005 µM): 0.899
relative viability ([14]; first compound 0.01581 µM): 1.02
relative viability ([14]; first compound 0.05 µM): 0.922
relative viability ([14]; first compound 0.1581 µM): 0.937
relative viability ([14]; first compound 0.5 µM): 0.88
relative viability ([15]; first compound 0.005 µM): 0.97
relative viability ([15]; first compound 0.01581 µM): 1.17
relative viability ([15]; first compound 0.05 µM): 0.643
relative viability ([15]; first compound 0.1581 µM): 0.834
relative viability ([15]; first compound 0.5 µM): 0.766
relative viability ([16]; first compound 0.005 µM): 0.91
relative viability ([16]; first compound 0.01581 µM): 0.989
relative viability ([16]; first compound 0.05 µM): 0.864
relative viability ([16]; first compound 0.1581 µM): 0.926
relative viability ([16]; first compound 0.5 µM): 0.928
relative viability ([17]; first compound 0.005 µM): 0.938
relative viability ([17]; first compound 0.01581 µM): 1.34
relative viability ([17]; first compound 0.05 µM): 1.08
relative viability ([17]; first compound 0.1581 µM): 1.13
relative viability ([17]; first compound 0.5 µM): 1.27
relative viability ([18]; first compound 0.005 µM): 1.19
relative viability ([18]; first compound 0.01581 µM): 1.33
relative viability ([18]; first compound 0.05 µM): 1.01
relative viability ([18]; first compound 0.1581 µM): 1.19
relative viability ([18]; first compound 0.5 µM): 1.17
relative viability ([19]; first compound 0.005 µM): 1.07
relative viability ([19]; first compound 0.01581 µM): 1.25
relative viability ([19]; first compound 0.05 µM): 1.2
relative viability ([19]; first compound 0.1581 µM): 1.08
relative viability ([19]; first compound 0.5 µM): 0.773
relative viability ([20]; first compound 0.005 µM): 0.189
relative viability ([20]; first compound 0.01581 µM): 0.186
relative viability ([20]; first compound 0.05 µM): 0.193
relative viability ([20]; first compound 0.1581 µM): 0.18
relative viability ([20]; first compound 0.5 µM): 0.172
relative viability ([21]; first compound 0.005 µM): 0.79
relative viability ([21]; first compound 0.01581 µM): 0.992
relative viability ([21]; first compound 0.05 µM): 0.96
relative viability ([21]; first compound 0.1581 µM): 0.953
relative viability ([21]; first compound 0.5 µM): 0.921
relative viability ([22]; first compound 0.005 µM): 1.05
relative viability ([22]; first compound 0.01581 µM): 1.12
relative viability ([22]; first compound 0.05 µM): 1.23
relative viability ([22]; first compound 0.1581 µM): 1.17
relative viability ([22]; first compound 0.5 µM): 1.05
